Measured values published in US20130184302A1, “METHODS FOR TREATING IRRITABLE BOWEL SYNDROME (IBS) AND INFECTIONS” (priority 2011, published 2013).

How the values were obtained:
Assay type in all cases: in vivo, human
[1] = system: C. difficile infection (CDI); assay: CDI trial: subgroup analysis of diarrhea at TOC; conditions: at TOC
Excerpt: Tables 42 and 43 set forth a subgroup analysis of diarrhea at TOC.

[2] = system: C. difficile infection (CDI); assay: CDI trial: global cure of diarrhea; conditions: Rifaximin N = 117, Vancomycin N = 115
Excerpt: Subjects having a global cure of diarrhea are set for the in Table 45. Global cure of diarrhea was defined as subjects who were cured of diarrhea at TOC without recurrence at follow up.

[3] = system: C. difficile infection (CDI); assay: CDI trial rifaximin 400 mg TID vs vancomycin 125 mg QID: clinical success at Test of Cure; conditions: at TOC (Day 14+/−1)
Method: Criteria for entry into the trial were: • Age>=18 years old; • Had acute diarrhea at screening defined as >=3 unformed stools in the last 24 hours and at least one sign of enteric infection (fever, nausea, lose of appetite, vomiting, severe abdominal pain/discomfort); and • a positive C. diff stool toxin assay
The primary efficacy endpoint of the study was defined as the proportion of subjects achieving clinical success. Specifically, clinical success was defined as the absence of severe abdominal pain at Test of Cure (TOC), absence of fever (<38° C.) at TOC, and <3 unformed stools for two consecutive days at TOC.
The non-inferiority margin for the primary endpoint was defined as lower bound of 95% CI of delta above −15%.
Clinical success was defined as the: Absence of severe abdominal pain at TOC, absence of fever (<38° C.) at TOC, and <3 unformed stools for two consecutive days at TOC. Test of cure defined as Day 14+/−1 day.

[4] = system: C. difficile infection (CDI); assay: CDI trial: recurrence of CDI, recurrence rate per person-year
Excerpt: Recurrence was defined to be a diarrhea and a positive C. diff stool toxin assay that occurred after initial clinical success.

[5] = system: C. difficile infection (CDI); assay: CDI trial: number of unformed stools during the treatment period; conditions: during the treatment period; ANOVA model with treatment and center as main effects; Rifaximin N = 117, Vancomycin N = 115
Excerpt: FIG. 18 sets for the average number of unformed stools per day of the study.

[6] = system: C. difficile infection (CDI); assay: CDI trial: continuing illnesses; conditions: Rifaximin N = 117, Vancomycin N = 115
[7] = system: C. difficile infection (CDI); assay: CDI trial: efficacy adjusting for concomitant medication usage
Excerpt: Table 48 sets forth the efficacy adjusting for concomitant medication usage.

[8] = system: C. difficile infection (CDI); assay: CDI trial: enteric symptoms at TOC; conditions: Rifaximin N = 108, Vancomycin N = 111
Excerpt: Table 41 sets forth a summary of the enteric symptoms at TOC.

[9] = subgroup Age <65, Rifaximin N = 69, Vancomycin N = 62
[10] = subgroup Age >=65, Rifaximin N = 39, Vancomycin N = 49
[11] = subgroup Female, Rifaximin N = 68, Vancomycin N = 64
[12] = subgroup Male, Rifaximin N = 40, Vancomycin N = 47
[13] = cured of diarrhea at TOC without recurrence at follow up
[14] = Rifaximin N = 117, Vancomycin N = 115
[15] = after initial clinical success, Rifaximin N = 67, Vancomycin N = 73
[16] = all subjects, Rifaximin N = 117, Vancomycin N = 115
[17] = Rifaximin N = 109, Vancomycin N = 112

## CN[C@H](CC(C)C)C(=O)N[C@H]1C(=O)N[C@@H](CC(N)=O)C(=O)N[C@H]2C(=O)N[C@H]3C(=O)N[C@H](C(=O)N[C@H](C(=O)O)c4cc(O)cc(O)c4-c4cc3ccc4O)[C@H](O)c3ccc(c(Cl)c3)Oc3cc2cc(c3O[C@@H]2O[C@H](CO)[C@@H](O)[C@H](O)[C@H]2O[C@H]2C[C@](C)(N)[C@H](O)[C@H](C)O2)Oc2ccc(cc2Cl)[C@H]1O [Vancomycin, vancomycin]
[1]; [9]
  Diarrhea, number of subjects: 12
  Diarrhea, percent of subjects: (19%)
  No Diarrhea, number of subjects: 50
  No Diarrhea, percent of subjects: (81%)
[1]; [10]
  Diarrhea, number of subjects: 9
  Diarrhea, percent of subjects: (18%)
  No Diarrhea, number of subjects: 40
  No Diarrhea, percent of subjects: (82%)
[1]; [11]
  Diarrhea, number of subjects: 11
  Diarrhea, percent of subjects: (17%)
  No Diarrhea, number of subjects: 53
  No Diarrhea, percent of subjects: (83%)
[1]; [12]
  Diarrhea, number of subjects: 10
  Diarrhea, percent of subjects: (21%)
  No Diarrhea, number of subjects: 37
  No Diarrhea, percent of subjects: (79%)
[2]
  Global Cure of Diarrhea: No, number of subjects: 30
  Global Cure of Diarrhea: No, percent of subjects: (26%)
[2]; [13]
  Global Cure of Diarrhea: Yes, number of subjects: 85
  Global Cure of Diarrhea: Yes, percent of subjects: (74%)
[3]; Rifaximin 400 mg TID N = 117, Vancomycin 125 mg QID N = 115
  Clinical Success: Yes, number of subjects: 73
[3]; [14]
  Clinical Success: No, number of subjects: 42
  Clinical Success: No, percent of subjects: (37%)
  Clinical Success: Yes, percent of subjects: (64%)
[4]; [15]
  No Recurrence of CDI, number of subjects: 63
  No Recurrence of CDI, percent of subjects: (86%)
  Recurrence of CDI, number of subjects: 10
  Recurrence of CDI, percent of subjects: (14%)
[4]; [16]
  Recurrence: No, number of subjects: 105
  Recurrence: No, percent of subjects: (93%)
  Recurrence: Yes, number of subjects: 10
  Recurrence: Yes, percent of subjects: (7%)
[5]
  Adjusted mean number of unformed stools-ANOVA: 1.90
[6]
  Continuing Illness: No, number of subjects: 99
  Continuing Illness: No, percent of subjects: (86%)
  Continuing Illness: Yes, number of subjects: 16
  Continuing Illness: Yes, percent of subjects: (14%)
[7]; [17]
  Diarrhea: No, number of subjects: 82
  Diarrhea: No, percent of subjects: (73%)
  Diarrhea: Yes, number of subjects: 30
  Diarrhea: Yes, percent of subjects: (27%)
[7]; [14]
  Clinical Success: No, number of subjects: 46
  Clinical Success: No, percent of subjects: (40%)
  Clinical Success: Yes, number of subjects: 69
  Clinical Success: Yes, percent of subjects: (60%)
[8]
  Diarrhea: No, number of subjects: 90
  Diarrhea: No, percent of subjects: (81%)
  Diarrhea: Yes, number of subjects: 21
  Diarrhea: Yes, percent of subjects: (19%)
  Fever: No, number of subjects: 109
  Fever: No, percent of subjects: (98%)
  Fever: Yes, number of subjects: 2
  Fever: Yes, percent of subjects: (2%)
  Severe Abdominal Pain/Discomfort: No, number of subjects: 95
  Severe Abdominal Pain/Discomfort: No, percent of subjects: (86%)
  Severe Abdominal Pain/Discomfort: Yes, number of subjects: 16
  Severe Abdominal Pain/Discomfort: Yes, percent of subjects: (14%)
